Experimental data taken from US5827837A, “Polyanion anti-inflammatory agents” (priority 1996, dated 1998).
Entries after “also recorded” stand apart in the source; their conditions may differ. Read-outs that look alike come from different tables or passages of the source. One block for each molecule: values may come before it.

Legend:
[1] = target: T1, L-selectin-lg fusion protein (Homo sapiens, UniProt P14151); assay: Competition ELISA: binding of L-selectin-Ig to immobilized BSA-sLe^x
T1 construct: Each selectin-lg contains the lectin domain, epidermal growth factor domain, and one (L-selectin-lg), two (P-selectin-lg) or six (E-selectin-lg) complement regulatory repeats; made in house
Excerpt: Selectin-lg fusion proteins are recombinant chimeric molecules containing extracellular regions of selectins coupled to the hinge, CH2, and CH3 regions of human IgG1 (Aruffo, A., et al., Cell, 67:35, 1991; Walz, G., et al., Science, 250:1132, 1990). Each selectin-lg contains the lectin domain, epidermal growth factor domain, and one (L-selectin-lg), two (P-selectin-lg) or six (E-selectin-lg) complement regulatory repeats of the parent molecules. DNAs encoding selectin-Ig inserted in pCDM7 allowed transient expression of recombinant proteins in COS cells as previously described (Seed, B., et al., Proc. Natl. Acad. Sci., U.S.A., 84:3365, 1987; Aruffo, A., Current Protocols In Molecular Biology, eds. Ausubel, F. M., et al, 16:13.1, Greene Publishing Associates and Wiley-lnterscience, New York, N.Y., 1992). These DNAs were also ligated into pNUT (Palmiter, R. D., et al, Cell, 50:435, 1987) for amplification and stable expression in BHK cells. The fusion proteins were affinity purified from culture media using protein A (Pierce Chemical Company, Rockford, Ill.) or protein G (Pharmacia, Piscataway, N.J.) Sepharose, as previously described (Aruffo, A., et al., Cell, 67:35, 1991; Aruffo, A., Current Protocols In Molecular Biology, eds. Ausubel, F. M., et al, supra, 1992). Competition binding ELISAs using P- and E-selectin-lg were performed essentially as described (Nelson, R. M., et al., J. Clin. […] Selectin concentrations were from 10 to 30 nM. […] To increase L-selectin binding, an assay similar to that previously described was used (Foxall, C., et al., J. Cell Biol., 117:895, 1992), in which the L-selectin-lg (10-20 nM) was allowed to form aggregates with HRP-conjugated anti-lg antibody for 30 minutes prior to addition of inositols and incubation on the BSA-sLe^x -coated plate. IC50 values were calculated by fitting binding data to the equation: fraction of maximal binding=IC50 […] using nonlinear least squares analysis software (Origin, Microcal Inc, Northampton, Mass.). InsP6 (dodecasodium salt), InsS6 (hexapotassium salt), myo-inositol 1 monophosphate (cyclohexylammonium salt), and myo-inositol were from Sigma Chemical Company (St. Louis, Mo.). Stock solutions were prepared daily in 0.9% NaCl and sterilized by 0.22 μm filtration. InsP6 solutions were adjusted at pH 7.4 with HCl.
(§1) L-, P-, or E-selectin-lg fusion proteins were incubated for 2-3 hours on microtiter plates coated with the neoglycoprotein BSA-sLe^x, the plates washed, and bound selectin-lg was detected using a peroxidase-conjugated antibody directed against the lg portion and a chromogenic substrate. To determine blocking activity, solution-phase lnsP6 (.circle-solid.), InsS6 (.largecircle.), or inositol (.box-solid.) at the indicated concentrations were added to the solutions containing selectin-Ig fusion proteins prior to transfer to microtiter plates (competition ELISA).

inflammation = conditions: rodent model; cited from earlier work
L-selectin [2] = conditions: cited from earlier work
[3] = target: T2, P-selectin-lg fusion protein (Homo sapiens, UniProt P16109); assay: Competition ELISA: binding of P-selectin-Ig to immobilized BSA-sLe^x
T2 construct: Each selectin-lg contains the lectin domain, epidermal growth factor domain, and one (L-selectin-lg), two (P-selectin-lg) or six (E-selectin-lg) complement regulatory repeats; made in house
Excerpt: (§2) Selectin-lg fusion proteins are recombinant chimeric molecules containing extracellular regions of selectins coupled to the hinge, CH2, and CH3 regions of human IgG1 (Aruffo, A., et al., Cell, 67:35, 1991; Walz, G., et al., Science, 250:1132, 1990). Each selectin-lg contains the lectin domain, epidermal growth factor domain, and one (L-selectin-lg), two (P-selectin-lg) or six (E-selectin-lg) complement regulatory repeats of the parent molecules. DNAs encoding selectin-Ig inserted in pCDM7 allowed transient expression of recombinant proteins in COS cells as previously described (Seed, B., et al., Proc. Natl. Acad. Sci., U.S.A., 84:3365, 1987; Aruffo, A., Current Protocols In Molecular Biology, eds. Ausubel, F. M., et al, 16:13.1, Greene Publishing Associates and Wiley-lnterscience, New York, N.Y., 1992). These DNAs were also ligated into pNUT (Palmiter, R. D., et al, Cell, 50:435, 1987) for amplification and stable expression in BHK cells. The fusion proteins were affinity purified from culture media using protein A (Pierce Chemical Company, Rockford, Ill.) or protein G (Pharmacia, Piscataway, N.J.) Sepharose, as previously described (Aruffo, A., et al., Cell, 67:35, 1991; Aruffo, A., Current Protocols In Molecular Biology, eds. Ausubel, F. M., et al, supra, 1992). Competition binding ELISAs using P- and E-selectin-lg were performed essentially as described (Nelson, R. M., et al., J. Clin. Invest., 91:1157, 1993), except that the assay buffer was 20 mM HEPES pH 7.4, 150 mM NaCl, 2 mM CaCl2, and 0.25 mM thimerosal, containing 10 mg/ml BSA, protease-free, (Miles Inc., Kankakee, Ill.). Selectin concentrations were from 10 to 30 nM. […] To increase L-selectin binding, an assay similar to that previously described was used (Foxall, C., et al., J. Cell Biol., 117:895, 1992), in which the L-selectin-lg (10-20 nM) was allowed to form aggregates with HRP-conjugated anti-lg antibody for 30 minutes prior to addition of inositols and incubation on the BSA-sLe^x -coated plate. IC50 values were calculated by fitting binding data to the equation: fraction of maximal binding=IC50 […] using nonlinear least squares analysis software (Origin, Microcal Inc, Northampton, Mass.). InsP6 (dodecasodium salt), InsS6 (hexapotassium salt), myo-inositol 1 monophosphate (cyclohexylammonium salt), and myo-inositol were from Sigma Chemical Company (St. Louis, Mo.). Stock solutions were prepared daily in 0.9% NaCl and sterilized by 0.22 μm filtration. InsP6 solutions were adjusted at pH 7.4 with HCl.
as §1

P-selectin [4] = conditions: cited from earlier work
[5] = target: T3, E-selectin-lg fusion protein (Homo sapiens, UniProt P16581); assay: Competition ELISA: binding of E-selectin-Ig to immobilized BSA-sLe^x
T3 construct: Each selectin-lg contains the lectin domain, epidermal growth factor domain, and one (L-selectin-lg), two (P-selectin-lg) or six (E-selectin-lg) complement regulatory repeats; made in house
Excerpt: as §2, §1

P-selectin [6] = conditions: cited from earlier work; remark: listed apart in the source
L-selectin [7] = conditions: cited from earlier work; remark: listed apart in the source
[8] = system: PMN within the peritoneal cavity; assay: Thioglycollate-induced peritoneal inflammation, PMN accumulation; type: in vivo, mice (Balb/c); conditions: mice, 80 μmol/kg in two i.v. injections, 2 experiments
hemoglobin = conditions: avian erythrocytes; cited from earlier work
[9] = chelator concentration above 1 mM
[10] = up to a concentration of 1 mM in assay buffer

IC50 ([1]; preliminary competition ELISA, single experiment, read-out: IC50, L-selectin-Ig): 230 ± 90 µM
Molecule: O=P(O)(O)O[C@@H]1[C@@H](O)[C@@H](O)[C@@H](OP(=O)(O)O)[C@H](OP(=O)(O)O)[C@H]1O (relative stereo) [D, L-isomer mixture of Ins1,4,6 P3]

Molecule: O=P(O)(O)O[C@@H]1[C@H](OP(=O)(O)O)[C@H](O)[C@@H](O)[C@H](O)[C@H]1OP(=O)(O)O [1,2,6-triphosphate (IP3), 1,2,6-triphosphate]
inhibition of inflammation (inflammation): modestly inhibit inflammation

Molecule: O=C(O)CN(CCN(CC(=O)O)CC(=O)O)CC(=O)O [EDTA, reference compound]
effect of calcium chelator on L-selectin interaction with sulfatides (L-selectin [2]): largely unaffected
inhibition profile, P-selectin [3, 9]: same inhibition profile on all three selectins
blocking of P-selectin with chelator [3, 10]: no blocking of any selectin up to a concentration of 1 mM
effect of calcium chelator on P-selectin interaction with sulfatides (P-selectin [4]): largely unaffected
inhibition profile, L-selectin [1, 9]: same inhibition profile on all three selectins
blocking of L-selectin with chelator [1, 10]: no blocking of any selectin up to a concentration of 1 mM
inhibition profile, E-selectin [5, 9]: same inhibition profile on all three selectins
blocking of E-selectin with chelator [5, 10]: no blocking of any selectin up to a concentration of 1 mM

IC50 ([5]; BSA-sLe^x competition ELISA, solution-phase sLe^x): 510 ± 60 µM
Molecule: CC(=O)N[C@H]1[C@H]([C@H](O)[C@H](O)CO)O[C@@](O[C@H]2[C@@H](O)[C@@H](CO)O[C@@H](O[C@H]3[C@H](O[C@@H]4O[C@@H](C)[C@@H](O)[C@@H](O)[C@@H]4O)[C@@H](NC(C)=O)C(O)O[C@@H]3CO)[C@@H]2O)(C(=O)O)C[C@@H]1O (some centres unmarked) [sLe^x, Neu5Acα2-3Galβ1-4(Fucα1-3)GIcNAc, reference compound]
blocking of L-selectin-Ig binding ([1]; BSA-sLe^x competition ELISA): failed to block L-selectin binding at concentrations up to 1 mM

activity against P-selectin ([3]; selected assays, in vitro): no activity
activity against L-selectin ([1]; selected assays, in vitro): no activity
Molecule: O=P(O)(O)OC1[C@H](O)[C@H](O)C(O)[C@H](O)[C@H]1O (some centres unmarked) [InsP1, myo-inositol 1 monophosphate, reference compound]

Molecule: heparin
P-selectin interaction / dependent adhesion (P-selectin [6]): interact with both P- and L-selectin
L-selectin interaction / dependent adhesion (L-selectin [7]): interact with both P- and L-selectin

IC50 ([3]; selected assays, in vitro, read-out: IC50, blocking activity against P-selectin): 940 ± 130 µM
IC50 ([1]; selected assays, in vitro, read-out: IC50, blocking activity against L-selectin): 38 ± 17 µM
Molecule: O=P(O)(O)O[C@@H]1[C@@H](OP(=O)(O)O)[C@H](OP(=O)(O)O)[C@H](O)[C@H](OP(=O)(O)O)[C@H]1OP(=O)(O)O [InsP5, inositol pentakisphosphate]
reduced peritoneal influx of PMN (inhibition) [8]: 48±6%
effect on hemoglobin affinity for oxygen (hemoglobin): increasing its affinity for oxygen

Molecule: O=P(O)(O)O[C@@H]1[C@@H](O)[C@H](OP(=O)(O)O)[C@@H](OP(=O)(O)O)[C@H](O)[C@@H]1O [L-isomer of Ins1,4,5 P3]
inhibition of L-selectin-Ig binding ([1]; preliminary competition ELISA, up to 700 μM): no inhibition at concentrations up to 700 μM

Molecule: fucoidan
P-selectin interaction / dependent adhesion (P-selectin [6]): interact with both P- and L-selectin
L-selectin interaction / dependent adhesion (L-selectin [7]): L-selectin adhesion can be blocked; also recorded: interact with both P- and L-selectin
